The nature of test [1]: Cytotoxicity activity against human MCF7 cells assessed as growth inhibition measured after 48 hrs by MTT assay. The test is classed as functional, cell-based. The following applies: MCF7, 48 h. Background: Formazan colour is commonly taken as a measure of viable cells.
Test [2] in a line: Cytotoxicity activity against human A549 cells assessed as growth inhibition measured after 48 hrs by MTT assay. The test is classed as functional, cell-based. The following applies: A549, 48 h.

Broadly, the IC50 is the concentration needed to halve the response being measured. As to `CC(=O)O[C@H]1C(=O)[C@@]2(C)[C@H]([C@H](OC(=O)c3ccccc3)[C@]3(O)C[C@H](OC(=O)[C@H](O)[C@@H](NC(=O)c4ccccc4)c4ccccc4)C(C)=C1C3(C)C)[C@]1(OC(C)=O)CO[C@@H]1C[C@@H]2O` [PACLITAXEL], the IC50 in test [1] came out at 60 nM; in test [2], 30 nM.
